Measurements: patent US20260092083A1, “VANCOMYCIN DERIVATIVES WITH SIDEROPHORE MODIFICATION AS NOVEL REPURPOSED ANTIBIOTICS TO COMBAT GRAM-NEGATIVE BACTERIAL INFECTION” (priority 2023, published 2026)
Values after ≈ are worked out from the molar mass of the structure shown.

Legend:
Assay type in all cases: cell-based
[1] = tested on: E. coli (wild-type) BW25113; assay: Broth microdilution MIC, E. coli wild-type; settings: Escherichia coli, iron-depleted CAMHB, OD600 ≤0.15, read-out: MIC (μg/mL) Gram-negative EC
Procedure: (§1) The test compounds including vancomycin hydrochloride were supplied as a 6.4 mg/mL solution in 100% dimethyl sulfoxide (DMSO) aliquoted into individual wells of a 96-well plate (50 μL per well). […] Standardized inocula were added to the MIC test plates, which were incubated for the prescribed times at 35° C. The N. gonorrhoeae strain was incubated in an atmosphere containing 5% CO2.
(§2) The final optical density of each well at 600 nm was measured using a Tecan Spark plate reader. The compound concentration versus OD600 data were then curve fit using custom software. An MIC value was defined as the lowest compound concentration that led to an OD600 value≤0.15 for the E. coli, K. pneumoniae, P. aeruginosa, A. baumannii, or S. aureus strains. For the N. gonorrhoeae strain, an OD600 value≤0.19 was used as a cutoff to define an MIC value; this higher cut-off value was required because the N. gonorrhoeae MIC plates were covered with plastic seals that increased the background OD600 value.
(§3) JMI Laboratories followed current CLSI quality assurance practices when performing the susceptibility tests. MIC values were validated by concurrently testing the CLSI-recommended ATCC QC reference strains S. aureus ATCC 29213 and K. pneumoniae ATCC 700603. The inoculum density during susceptibility testing was monitored by bacterial colony counts. Where applicable, QC ranges for tested reference strains were those ranges approved or published by CLSI for testing in CAMHB. […] Importantly, the CLSI reference method for testing N. gonorrhoeae is the agar dilution MIC method, which was not used here. Thus, CLSI MIC QC ranges for N. gonorrhoeae could not be applied to the antimicrobials studied here.
(§4) Abbreviations: EC, E. coli (wild-type) BW25113; EC efflux^−, E. coli (tolC) JW5503-1; KPN, K. pneumoniae ATCC 700603; PSA, P. aeruginosa PAO1; PSA efflux^−, P. aeruginosa (multi-pump-gene mutant) PAM1626; ACB, A. baumannii JMI #1186154; GC, N. gonorrhoeae WHO-Z; SA, S. aureus ATCC 29213. Broth microdilution MIC values were measured in iron-depleted CAMHB for all strains except for GC, which was tested in fastidious broth.

E. coli (tolC) JW5503-1 = assay: Broth microdilution MIC, E. coli efflux-deficient (tolC); settings: Escherichia coli, read-out: MIC (μg/mL) Gram-negative EC Efflux
Procedure: as §1, §2, §3, §4

[2] = tested on: K. pneumoniae ATCC 700603; assay: Broth microdilution MIC, K. pneumoniae; settings: Klebsiella pneumoniae, ATCC700603, read-out: MIC (μg/mL) Gram-negative KPN
Procedure: as §1, §2, §3, §4

P. aeruginosa PAO1 = assay: Broth microdilution MIC, P. aeruginosa; settings: Pseudomonas aeruginosa, iron-depleted CAMHB, OD600 ≤0.15, read-out: MIC (μg/mL) Gram-negative PSA
Procedure: as §1, §2, §3, §4

[3] = tested on: P. aeruginosa (multi-pump-gene mutant) PAM1626; assay: Broth microdilution MIC, P. aeruginosa efflux-deficient; settings: Pseudomonas aeruginosa, read-out: MIC (μg/mL) Gram-negative PSA Efflux
Procedure: as §1, §2, §3, §4

[4] = tested on: A. baumannii JMI #1186154; assay: Broth microdilution MIC, A. baumannii; settings: Acinetobacter baumannii, iron-depleted CAMHB, OD600 ≤0.15, read-out: MIC (μg/mL) Gram-negative ACB
Procedure: as §1, §2, §3, §4

N. gonorrhoeae WHO-Z = assay: Broth microdilution MIC, N. gonorrhoeae; settings: Neisseria gonorrhoeae, read-out: MIC (μg/mL) Gram-negative GC
Procedure: as §1, §2, §3, §4

S. aureus ATCC 29213 = assay: Broth microdilution MIC, S. aureus; settings: Staphylococcus aureus, ATCC29213, iron-depleted CAMHB, OD600 ≤0.15, read-out: MIC (μg/mL) Gram positive SA
Procedure: as §1, §2, §3, §4

Structure (SMILES) | MIC [1] [µg/mL] | MIC (E. coli (tolC) JW5503-1) [µg/mL] | MIC [2] [µg/mL] | MIC (P. aeruginosa PAO1) [µg/mL] | MIC [3] [µg/mL] | MIC [4] [µg/mL] | MIC (N. gonorrhoeae WHO-Z) [µg/mL] | MIC (S. aureus ATCC 29213) [µg/mL]
CN[C@H](CC(C)C)C(=O)N[C@H]1C(=O)N[C@@H](CC(N)=O)C(=O)N[C@H]2C(=O)N[C@H]3C(=O)N[C@H](C(=O)N[C@H](C(=O)NCCCCCCNC(=O)c4ccc(O)c(O)c4Cl)c4cc(O)cc(O)c4-c4cc3ccc4O)[C@H](O)c3ccc(c(Cl)c3)Oc3cc2cc(c3O[C@@H]2O[C@H](CO)C(O)C(O)[C@H]2O[C@H]2CC(C)(N)[C@H](O)[C@H](C)O2)Oc2ccc(cc2Cl)[C@H]1O (stereo partly drawn) [Compound 7] | 64 (≈ 37.3 µM) | 64 (≈ 37.3 µM) | > 64 | > 64 | > 64 | 1 (≈ 0.582 µM) | > 64 | 4 (≈ 2.33 µM)
CN[C@H](CC(C)C)C(=O)N[C@H]1C(=O)N[C@@H](CC(N)=O)C(=O)N[C@H]2C(=O)N[C@H]3C(=O)N[C@H](C(=O)N[C@H](C(=O)NCCCCCCCNC(=O)c4ccc(O)c(O)c4Cl)c4cc(O)cc(O)c4-c4cc3ccc4O)[C@H](O)c3ccc(c(Cl)c3)Oc3cc2cc(c3O[C@@H]2O[C@H](CO)C(O)C(O)[C@H]2O[C@H]2CC(C)(N)[C@H](O)[C@H](C)O2)Oc2ccc(cc2Cl)[C@H]1O (stereo partly drawn) [Compound 8] | 64 (≈ 37 µM) | 64 (≈ 37 µM) | > 64 | > 64 | > 64 | 2 (≈ 1.15 µM) | > 64 | 4 (≈ 2.31 µM)
CN[C@H](CC(C)C)C(=O)N[C@H]1C(=O)N[C@@H](CC(N)=O)C(=O)N[C@H]2C(=O)N[C@H]3C(=O)N[C@H](C(=O)N[C@H](C(=O)NCCCCCCCCNC(=O)c4ccc(O)c(O)c4Cl)c4cc(O)cc(O)c4-c4cc3ccc4O)[C@H](O)c3ccc(c(Cl)c3)Oc3cc2cc(c3O[C@@H]2O[C@H](CO)C(O)C(O)[C@H]2O[C@H]2CC(C)(N)[C@H](O)[C@H](C)O2)Oc2ccc(cc2Cl)[C@H]1O (stereo partly drawn) [Compound 9] | 64 (≈ 36.7 µM) | 64 (≈ 36.7 µM) | > 64 | > 64 | > 64 | 8 (≈ 4.58 µM) | > 64 | 4 (≈ 2.29 µM)
CN[C@H](CC(C)C)C(=O)N[C@H]1C(=O)N[C@@H](CC(N)=O)C(=O)N[C@H]2C(=O)N[C@H]3C(=O)N[C@H](C(=O)N[C@H](C(=O)NCCCNC(=O)c4cccc(O)c4O)c4cc(O)cc(O)c4-c4cc3ccc4O)[C@H](O)c3ccc(c(Cl)c3)Oc3cc2cc(c3O[C@@H]2O[C@H](CO)C(O)C(O)[C@H]2O[C@H]2CC(C)(N)[C@H](O)[C@H](C)O2)Oc2ccc(cc2Cl)[C@H]1O (stereo partly drawn) [Compound 12] | 64 (≈ 39 µM) | 64 (≈ 39 µM) | > 64 | > 64 | > 64 | 4 (≈ 2.44 µM) | > 64 | 2 (≈ 1.22 µM)
CN[C@H](CC(C)C)C(=O)N[C@H]1C(=O)N[C@@H](CC(N)=O)C(=O)N[C@H]2C(=O)N[C@H]3C(=O)N[C@H](C(=O)N[C@H](C(=O)NCCCCNC(=O)c4cccc(O)c4O)c4cc(O)cc(O)c4-c4cc3ccc4O)[C@H](O)c3ccc(c(Cl)c3)Oc3cc2cc(c3O[C@@H]2O[C@H](CO)C(O)C(O)[C@H]2O[C@H]2CC(C)(N)[C@H](O)[C@H](C)O2)Oc2ccc(cc2Cl)[C@H]1O (stereo partly drawn) [Compound 13] | 64 (≈ 38.7 µM) | > 64 | > 64 | > 64 | > 64 | 4 (≈ 2.42 µM) | > 64 | 2 (≈ 1.21 µM)
CNC(CC(C)C)C(=O)NC1C(=O)NC(CC(N)=O)C(=O)NC2C(=O)NC3C(=O)NC(C(=O)N[C@H](C(=O)NCCc4cn(CCNC(=O)c5cccc(O)c5O)nn4)c4cc(O)cc(O)c4-c4cc3ccc4O)C(O)c3ccc(c(Cl)c3)Oc3cc2cc(c3OC2OC(CO)C(O)C(O)C2OC2CC(C)(N)C(O)C(C)O2)Oc2ccc(cc2Cl)C1O (stereo partly drawn) [Compound 15] | > 64 | > 64 | > 64 | > 64 | > 64 | 16 (≈ 9.29 µM) | > 64 | 4 (≈ 2.32 µM)
